Consider 12 compounds from patent US20240174690A1, “ANNULATED 2-AMINO-3-CYANO THIOPHENES AND DERIVATIVES FOR THE TREATMENT OF CANCER” (BOEHRINGER INGELHEIM INTERNATIONAL GMBH, priority 2021, published 2024).

In data set [1] the test system is MKN1 cells. Description: MKN1 CTG proliferation assay (120 h) (gastric cancer, wt amplified). It counts as cell-based. The conditions noted are these: Homo sapiens, MKN-1, assay 3, CTG 120 h, read-out: MKN1 (assay 3) IC50. The protocol: MKN1 CTG Proliferation Assay (120 h) (Gastric Cancer, Wt Amplified)
MKN1 cells (JCRB0252) are dispensed into white 384-well plates, flat and white bottom (Corning Costar, PNr.: 3570) at a density of 400 cells per well in 50 μL RPMI 1640 (PAN-Biotech, PNr.: P04-18047)+10% FCS (HyClone, PNr.: SH30084.03) (assay 1) or into white 384-well plates, flat and white bottom (Perkin Elmer, 6007680) at a density of 500 cells per well in 40 μl RPMI (Gibco, PNr.: 21875034)+10% FCS (HyClone, PNr.: SH30084.03) (assay 2) or into black 384-well plates, flat and clear bottom (Greiner, PNr. 781091) at a density of 200 cells per well in 60 μl RPMI-1640 (Gibco #A10491)+10% FCS (HyClone, PNr.: SH30084.03)+PenStrep (Gibco, PNr.15140-122) (assay 3). […] Compounds (10 mM stock in DMSO) are added at logarithmic dose series using the HP Digital Dispenser D300 (Tecan) (assay 1+2) or the ECHO acoustic liquid handler system (Beckman Coulter) (assay 3), including DMSO controls and normalizing for added DMSO. Plates are incubated for 120 h, and cell viability is measured using CellTiter-Glo luminescent cell viability reagent (Promega product code G7570). Viability (stated as percent of control) is defined as relative luminescence units RLU of each well divided by the RLU of cells in DMSO controls. IC50 values are determined from viability measurements by non-linear regression using a four-parameter model.

Data set [2] in a line: Solubility measurement (DMSO solution method), McIlvaine buffer pH 4.5 or 6.8. It counts as physicochemical. The conditions noted are these: aqueous buffer, kinetic from dmso stock, DMSO stock diluted to 250 μM, 24 h shaking at ambient temperature. The procedure:
The DMSO solution is diluted with an aqueous medium (Mcllvaine buffer with pH=4.5 or 6.8) to a final concentration of 250 μM. After 24 h of shaking at ambient temperature a potentially formed precipitate is removed by filtration. The concentration of the test compound in the filtrate is determined by LC-UV methods by calibrating the signal to the signal of a reference solution with complete dissolution of the test compound in acetonitrile/water (1:1) with known concentration.

Setting [3] is: McIlvaine buffer pH 4.5, read-out: solubility pH 4.5.
The mark [4] stands for this setting: McIlvaine buffer pH 6.8, read-out: solubility pH 6.8.

In brackets after ≈: the same amount, converted by molar mass. Where two headings read alike, the source gives them in different places.

On to `C[C@H](Oc1cc(N2C[C@H](C)NC3(CC3)C2)nc(-c2onc3c2CCC[C@@]32CCCc3sc(N)c(C#N)c32)n1)[C@@H]1CCCN1C` [I-8], for which the IC50 in data set [1] came to 395 nM. The values for the solubility at 24 h in data set [2] (setting [3]) and in data set [2] (setting [4]) were greater than 146 µg/mL and 116 µg/mL (≈ 189 µM), respectively.
The matching figures for `C[C@H](Oc1cc(N2CCCC3(COC3)C2)nc(-c2noc3c2CCC[C@@]32CCCc3sc(N)c(C#N)c32)n1)[C@@H]1CCCN1C` [II-72]: 68 nM, greater than 146 µg/mL and 89 µg/mL (≈ 145 µM).
The matching figures for `C[C@H](Oc1cc(N2Cc3cnn(C)c3C2)nc(-c2noc3c2CCC[C@@]32CCCc3sc(N)c(C#N)c32)n1)[C@@H]1CCCN1C` [II-63]: 578 nM, less than 1 µg/mL and less than 1 µg/mL.
The matching figures for `C[C@H](Oc1cc(N2CCN(C)C2=O)nc(-c2noc3c2CCC[C@@]32CCCc3sc(N)c(C#N)c32)n1)[C@@H]1CCCN1C` [II-75]: 108 nM, greater than 122 µg/mL and 91 µg/mL (≈ 155 µM).
With `C[C@H](Oc1cc(-c2ccn(-c3ccccc3)n2)nc(-c2noc3c2CCC[C@@]32CCCc3sc(N)c(C#N)c32)n1)[C@@H]1CCCN1C` [II-89], the IC50 in data set [1] amounted to 625 nM. The values for the solubility at 24 h in data set [2] (setting [3]) and in data set [2] (setting [4]) were 2 µg/mL (≈ 3.16 µM) and less than 1 µg/mL, respectively.
As for `CO[C@@H]1C[C@@H]([C@H](C)Oc2cc(-c3ccn(C)n3)nc(-c3noc4c3CCC[C@@]43CCCc4sc(N)c(C#N)c43)n2)N(C)C1` [II-91], the IC50 in data set [1] was 247 nM. For the same compound, the solubility at 24 h is 118 µg/mL (≈ 196 µM) in data set [2] (setting [3]) and less than 1 µg/mL in data set [2] (setting [4]).
The like results for `C[C@H](Oc1cc(-n2ccnc2)nc(-c2noc3c2CCC[C@@]32CCCc3sc(N)c(C#N)c32)n1)[C@@H]1C[C@@H](F)CN1C` [II-120] were, in that order, 234 nM, 106 µg/mL (≈ 184 µM) and less than 1 µg/mL.
The matching figures for `C[C@H](Oc1cc(-c2cccc(CO)c2)nc(-c2noc3c2CCC[C@@]32CCCc3sc(N)c(C#N)c32)n1)[C@@H]1CCCN1C` [II-97]: 598 nM, 40 µg/mL (≈ 67 µM) and less than 1 µg/mL.
On to `C[C@H](Oc1cc(N2C[C@H](C)N[C@@H](C)C2)nc(-c2noc3c2CCC[C@@]32CCCc3sc(N)c(C#N)c32)n1)[C@@H]1CCCN1C` [II-56], for which the IC50 in data set [1] amounted to 660 nM. The results for the solubility at 24 h in data set [2] (setting [3]) and in data set [2] (setting [4]) were greater than 144 µg/mL and greater than 146 µg/mL, respectively.
For `C[C@H](Oc1cc(-n2cncn2)nc(-c2noc3c2CCC[C@@]32CCCc3sc(N)c(C#N)c32)n1)[C@@H]1CCCN1C` [II-70], the IC50 in data set [1] came to 387 nM. Besides, the solubility at 24 h was determined as 109 µg/mL (≈ 195 µM) in data set [2] (setting [3]) and 94 µg/mL (≈ 169 µM) in data set [2] (setting [4]).
The matching figures for `COC(=O)c1ccc(-c2cc(O[C@@H](C)[C@@H]3CCCN3C)nc(-c3noc4c3CCC[C@@]43CCCc4sc(N)c(C#N)c43)n2)o1` [II-114]: 358 nM, 41 µg/mL (≈ 66.7 µM) and less than 1 µg/mL.
Consider `C[C@H](Oc1cc(-c2cn[nH]c2)nc(-c2noc3c2CCC[C@@]32CCCc3sc(N)c(C#N)c32)n1)[C@@H]1CCCN1C` [II-87], for which the IC50 in data set [1] worked out at 302 nM.

In general, IC50 refers to the concentration that inhibits the measured activity by half. For orientation: solubility means the concentration that dissolves in the medium under given conditions.
